Settings: instrument: DT, single field, calibrated with Agilent tune mix (Agilent)

Row | SMILES | collision cross section (N2) ([M+H]+) | collision cross section (N2) ([M-H]-) | other results
1 | CCCCCCCCCCCCCCCC(=O)SCCNC(=O)CCNC(=O)[C@H](O)C(C)(C)COP(=O)(O)OP(=O)(O)OC[C@H]1O[C@@H](n2cnc3c(N)ncnc32)[C@H](O)[C@@H]1OP(=O)(O)O [Palmitoyl CoA] | 296.2 Å² | 296.46 Å² | 
2 | CC(C)(CO)[C@@H](O)C(=O)NCCC(=O)O [Pantothenate] | 148.1 Å² |  | 
3 | O=C(O)c1ccc(O)c(O)c1 [Protocatechuic acid] |  |  | collision cross section (N2) ([M+H-H2O]+): 122.3 Å²
4 | Cc1ncc(COP(=O)(O)O)c(CN)c1O [Pyridoxamine 5'-phosphate] | 150.9 Å² |  | 
5 | O=c1c(O)c(-c2ccc(O)c(O)c2)oc2cc(O)cc(O)c12 [Quercetin] | 166.7 Å² | 158.98 Å² | 
6 | O=C(O)c1cccnc1C(=O)O [Quinolinate] |  |  | collision cross section (N2) ([M+H-H2O]+): 130.5 Å²
7 | CC1=C(/C=C/C(C)=C/C=C/C(C)=C/C=O)C(C)(C)CCC1 [Retinene] | 170.1 Å² |  | 
8 | Cc1cc2nc3c(=O)[nH]c(=O)nc-3n(C[C@H](O)[C@H](O)[C@H](O)CO)c2cc1C [Riboflavin (Vitamin B2)] | 188.3 Å² | 184.12 Å² | 
9 | CSC[C@H]1O[C@@H](n2cnc3c(N)ncnc32)[C@H](O)[C@@H]1O [S-Methyl-5'-thioadenosine] | 162.5 Å² |  | 
10 | O=C(O)CNC(=O)c1ccccc1O [Salicyluric acid] |  | 133.01 Å² | 
11 | C[C@H](O)C(=O)C1=Nc2c([nH]c(N)nc2=O)NC1 [Sepiapterin] | 152.8 Å² |  | collision cross section (N2) ([M-H2O-H]-): 144.47 Å²
12 | NCCCCNCCCN [Spermidine] | 131.9 Å² |  | 
13 | CCCCCCCCCCCCCCCCCC(N)=O [Stearamide] | 188.3 Å² |  | 
14 | CCCCCCCCCCCCCCCCCC(=O)O[C@H](CC(=O)[O-])C[N+](C)(C)C [Stearoylcarnitine] | 221.1 Å² |  | 
15 | C[C@H](CCC(=O)NCCS(=O)(=O)O)[C@H]1CC[C@H]2[C@@H]3[C@H](O)C[C@@H]4C[C@H](O)CC[C@]4(C)[C@H]3CC[C@]12C [Taurochenodeoxycholate] |  | 205.39 Å² | collision cross section (N2) ([M+Na]+): 207.4 Å²
16 | C[C@H](CCC(=O)NCCS(=O)(=O)O)[C@H]1CC[C@H]2[C@@H]3CC[C@@H]4C[C@H](O)CC[C@]4(C)[C@H]3C[C@H](O)[C@]12C [Taurodeoxycholic acid] | 204.5 Å² | 204.37 Å² | 

Row | SMILES | collision cross section (N2) ([M+H]+) | collision cross section (N2) ([M-H]-) | other results
17 | C[C@H](CCC(=O)NCCS(=O)(=O)O)[C@H]1CC[C@H]2[C@@H]3CC[C@@H]4C[C@H](O)CC[C@]4(C)[C@H]3CC[C@]12C [Taurolithocholic acid] |  | 204.62 Å² | collision cross section (N2) ([M+H-H2O]+): 220.6 Å²
18 | O=C(O)CCCCC1CCSS1 (stereo unspecified) [Thioctic acid] |  |  | collision cross section (N2) ([M+H-H2O]+): 133.8 Å²
19 | OC[C@H]1O[C@H](O[C@H]2O[C@H](CO)[C@@H](O)[C@H](O)[C@H]2O)[C@H](O)[C@@H](O)[C@@H]1O [Trehalose] |  |  | collision cross section (N2) ([M+Na]+): 174.9 Å²
20 | CCCCCCCCCCCCC(=O)O [Tridecanoic acid] |  | 155.16 Å² | 
21 | CCCCCCCCCCC(=O)O [Undecanoic Acid] |  | 148.87 Å² | 
22 | O=c1ccn([C@@H]2O[C@H](COP(=O)(O)O)[C@@H](O)[C@H]2O)c(=O)[nH]1 [Uridine 5'-monophosphate] |  |  | collision cross section (N2) ([M+Na]+): 171.8 Å²
23 | O=C(O)/C=C/c1cnc[nH]1 [Urocanic acid] | 134.1 Å² | 118.78 Å² | 
24 | O=P(O)(O)OC1O[C@H](CO)[C@@H](O)[C@H](O)[C@H]1O (stereo partly drawn) [a-D-Galactose 1-phosphate] |  | 145.32 Å² | collision cross section (N2) ([M+Na]+): 157.5 Å²
25 | C[C@]12CC[C@@H]3c4ccc(O)cc4CC[C@H]3[C@@H]1CC[C@@H]2O [beta-Estradiol] |  |  | collision cross section (N2) ([M+H-H2O]+): 159.7 Å²
26 | NC(=O)c1ccc[n+]([C@@H]2O[C@H](COP(=O)([O-])O)[C@@H](O)[C@H]2O)c1 [beta-Nicotinamide D-ribonucleotide] |  |  | collision cross section (N2) ([M]+): 165.2 Å²
27 | Nc1nc(=O)c2ncn([C@H]3C[C@H](O)[C@@H](COP(=O)(O)OP(=O)(O)O)O3)c2[nH]1 [dGDP] | 187.7 Å² |  | 
28 | CSCC[C@H](NC(=O)CC[C@H](N)C(=O)O)C(=O)O [gamma-Glutamylmethionine] | 165.1 Å² |  | 
29 | O=C(O)/C=C/c1ccccc1O [trans-2-Hydroxycinnamic acid] |  |  | collision cross section (N2) ([M+H-H2O]+): 124.1 Å²
30 | C[C@]12CC[C@H](O)CC1=CC[C@@H]1[C@@H]2CC[C@]2(C)C(=O)CC[C@@H]12 [trans-Dehydroandrosterone] |  | 175.34 Å² | collision cross section (N2) ([M+H-H2O]+): 166 Å²
31 | CCCCCC/C=C/CCCCCCCCCC(=O)O [trans-Vaccenic acid] |  | 174.95 Å² | 

Reference: the C3SDB collision cross section collection
